Measured values: patent publication US20230293676A1, “Pharmaceutical Composition Comprising Hepatitis B Virus-Derived Polypeptide for Prevention or Treatment of Cancer” (priority 2020, published 2023)
Ends that are not written are not given here.

Columns and labels:
[1] = tested on: B16F10 murine melanoma cancer cell; assay: cytotoxicity against cancer cells by poly6-treated DC2.4 cells, FACS; format: cell-based
Protocol: (§1) FIG. 7 illustrates the results of confirming that the cytotoxicity of various cancer cell lines (MC38, B16F10, and EO771) was reduced when iNOS formation was inhibited by L-NAME (5 mM) treatment while stimulating DC2.4 cells with poly6 for 24 hours (statistical significance was tested by Student's t-test. *, P<0.05; **, P<0.01; and ***, P<0.001).

[2] = tested on: MC38 murine colon cancer cell; assay: as above; format: cell-based
Protocol: as §1

[3] = tested on: EO771; assay: as above; format: cell-based, murine
Protocol: as §1

[4] = tested on: MDA231 human breast cancer cell; conditions: concentration-dependent
[5] = tested on: PanO2 murine pancreatic cancer cell; conditions: concentration-dependent
[6] = L-NAME 5 mM while stimulating DC2.4 with poly6 for 24 hours
[7] = DC2.4 treated with 10 μM of poly6 vs LPS (1 μg/ml)

Compound | cytotoxicity when iNOS formation was inhibited [1, 6] | cytotoxicity when iNOS formation was inhibited [2, 6] | cytotoxicity when iNOS formation was inhibited [3, 6] | cytotoxicity by poly6-stimulated DC2.4 cells [4] | cytotoxicity by poly6-stimulated DC2.4 cells [5] | cytotoxicity against cancer cells compared to LPS [1, 7] | cytotoxicity by poly6-stimulated DC2.4 cells ([1]; concentration-dependent) | cytotoxicity against cancer cells compared to LPS [2, 7] | cytotoxicity by poly6-stimulated DC2.4 cells ([2]; concentration-dependent) | cytotoxicity by poly6-stimulated DC2.4 cells ([3]; concentration-dependent)
COC(=O)[C@@H](N)CCCNC(=N)N[N+](=O)[O-] [L-NAME, reference compound] | reduced | reduced | reduced | – | – | – | – | – | – | –
GRLVFQ [poly6, GRLVFQ] | – | – | – | cytotoxicity was induced | cytotoxicity was induced | statistically significantly increased | cytotoxicity was induced | statistically significantly increased | cytotoxicity was induced | cytotoxicity was induced
